Experimental data as given in patent US9670227B2, “Thienopyrimidine derivatives, a process for their preparation and pharmaceutical compositions containing them” (LES LABORATOIRES SERVIER, priority 2013, dated 2017).

Assays:
[1] = system: H929 multiple myeloma tumour line; assay: In vitro cytotoxicity, Microculture Tetrazolium Assay; assay type: cell-based; details: Homo sapiens, NCI-H929, 48 h, H929 cells, 48 hours exposure, MTT; read-out: IC50 (μM) MTT H929
Description: The cytotoxicity studies were carried out on the H929 multiple myeloma tumour line.
The cells are distributed onto microplates and exposed to the test compounds for 48 hours.

[2] = molecular target: Mcl-1 protein (UniProtKB primary accession number: Q07820) (Homo sapiens, UniProt Q07820); assay: Inhibition of Mcl-1 by fluorescence polarisation, Method 1; assay type: binding; details: fluorescence polarisation; Method 1, or Method 2; read-out: IC50 (M) Mcl-1 FP
Method in brief: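 FP readout of relative binding potency. Mcl-1 5 nM final, fluorescein-labelled ligand 1 nM final; buffer 10 mM HEPES, 150 mM NaCl, 0.05% Tween 20, pH 7.4; 11-pt dilution series, 5% DMSO final.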

Sequence of Mcl-1 protein (Q07820 whole entry): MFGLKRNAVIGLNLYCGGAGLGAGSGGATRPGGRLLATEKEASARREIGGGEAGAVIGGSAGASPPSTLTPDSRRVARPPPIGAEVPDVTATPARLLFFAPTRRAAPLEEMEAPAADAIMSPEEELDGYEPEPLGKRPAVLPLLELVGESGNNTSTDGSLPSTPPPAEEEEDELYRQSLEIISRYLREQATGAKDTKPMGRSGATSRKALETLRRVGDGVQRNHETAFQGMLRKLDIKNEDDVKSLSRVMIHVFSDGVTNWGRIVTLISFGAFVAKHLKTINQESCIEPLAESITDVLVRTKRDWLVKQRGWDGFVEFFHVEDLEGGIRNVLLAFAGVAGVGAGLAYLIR

With COc1ccccc1-c1nccc(COc2ccccc2CC(Oc2ncnc3sc(-c4ccc(OCc5cccc(C)c5)cc4)c(-c4ccc(OCCN5CCN(C)CC5)c(Cl)c4C)c23)C(=O)O)n1 [Example 773, (2R)-2-[((5Sa)-5-{3-chloro-2-methyl-4-[2-(4-methylpiperazin-1-yl)ethoxy]phenyl}-6-{4-[(3-methylbenzyl)oxy]phenyl}thieno[2,3-d]pyrimidin-4-yl)oxy]-3-(2-{[2-(2-methoxyphenyl)pyrimidin-4-yl]methoxy}phenyl)propanoic acid] the IC50 [1] was 0.017 µM and the IC50 [2] was 1.25e-09 M.
COc1ccccc1-c1nccc(COc2ccccc2CC(Oc2ncnc3sc(-c4ccc(OCc5ccc(Cl)cc5)cc4)c(-c4ccc(OCCN5CCN(C)CC5)c(Cl)c4C)c23)C(=O)O)n1 [Example 775, (2R)-2-[(6-{4-[(4-chlorobenzyl)oxy]phenyl}-(5Sa)-5-{3-chloro-2-methyl-4-[2-(4-methylpiperazin-1-yl)ethoxy]phenyl}thieno[2,3-d]pyrimidin-4-yl)oxy]-3-(2-{[2-(2-methoxyphenyl)pyrimidin-4-yl]methoxy}phenyl)propanoic acid] gave an IC50 [1] of 0.039 µM and an IC50 [2] of 3.55e-09 M.
With COc1ccccc1-c1nccc(COc2ccccc2CC(Oc2ncnc3sc(-c4ccc(OCc5ccn(C)n5)cc4)c(-c4ccc(OCCN5CCN(C)CC5)c(Cl)c4C)c23)C(=O)O)n1 [Example 776, (2R)-2-[((5Sa)-5-{3-chloro-2-methyl-4-[2-(4-methylpiperazin-1-yl)ethoxy]phenyl}-6-{4-[(1-methyl-1H-pyrazol-3-yl)methoxy]phenyl}thieno[2,3-d]pyrimidin-4-yl)oxy]-3-(2-{[2-(2-methoxyphenyl)pyrimidin-4-yl]methoxy}phenyl)propanoic acid] the IC50 [1] was 0.007 µM and the IC50 [2] was 9.48e-10 M.
COc1ccccc1-c1nccc(COc2ccccc2CC(Oc2ncnc3sc(-c4ccc(OCc5cccs5)cc4)c(-c4ccc(OCCN5CCN(C)CC5)c(Cl)c4C)c23)C(=O)O)n1 [Example 777, (2R)-2-[((5Sa)-5-{3-chloro-2-methyl-4-[2-(4-methylpiperazin-1-yl)ethoxy]phenyl}-6-[4-(thiophen-2-ylmethoxy)phenyl]thieno[2,3-d]pyrimidin-4-yl)oxy]-3-(2-{[2-(2-methoxyphenyl)pyrimidin-4-yl]methoxy}phenyl)propanoic acid] showed an IC50 [1] of 0.008 µM and an IC50 [2] of 1.12e-09 M.
With COc1ccccc1-c1nccc(COc2ccccc2CC(Oc2ncnc3sc(-c4ccc(OCc5ccsc5)cc4)c(-c4ccc(OCCN5CCN(C)CC5)c(Cl)c4C)c23)C(=O)O)n1 [Example 778, (2R)-2-[((5Sa)-5-{3-chloro-2-methyl-4-[2-(4-methylpiperazin-1-yl)ethoxy]phenyl}-6-[4-(thiophen-3-ylmethoxy)phenyl]thieno[2,3-d]pyrimidin-4-yl)oxy]-3-(2-{[2-(2-methoxyphenyl)pyrimidin-4-yl]methoxy}phenyl)propanoic acid] the IC50 [1] was 0.013 µM and the IC50 [2] was 1.09e-09 M.
Cc1c(-c2c(-c3ccc(OCc4ccn(C)n4)cc3)sc3ncnc(OC(Cc4ccccc4OCc4ccnn4CC(F)(F)F)C(=O)O)c23)ccc(OCCN2CCN(C)CC2)c1Cl [Example 779, (2R)-2-[((5Sa)-5-{3-chloro-2-methyl-4-[2-(4-methylpiperazin-1-yl)ethoxy]phenyl}-6-{4-[(1-methyl-1H-pyrazol-3-yl)methoxy]phenyl}thieno[2,3-d]pyrimidin-4-yl)oxy]-3-(2-{[1-(2,2,2-trifluoroethyl)-1H-pyrazol-5-yl]methoxy}phenyl)propanoic acid] was tested, and the IC50 [1] was 0.056 µM and the IC50 [2] was 1.86e-09 M.
For COc1ccccc1-c1nccc(COc2ccccc2CC(Oc2ncnc3sc(C#CCOc4ccccc4)c(-c4ccc(OCCN5CCN(C)CC5)c(Cl)c4C)c23)C(=O)O)n1 [Example 782, (2R)-2-{[(5Sa)-5-{3-chloro-2-methyl-4-[2-(4-methylpiperazin-1-yl)ethoxy]phenyl}-6-(3-phenoxyprop-1-yn-1-yl)thieno[2,3-d]pyrimidin-4-yl]oxy}-3-(2-{[2-(2-methoxyphenyl)pyrimidin-4-yl]methoxy}phenyl)propanoic acid], the IC50 [1] was 0.057 µM and the IC50 [2] was 1.68e-09 M.
